Assay results published in US9005575B2, “Arg-Gly-Asp-conjugated alpha-melanocyte stimulating hormone hybrid peptide for use in diagnosing and treating melanoma, including metastatic melanoma and methods related to same” (STC.UNM, priority 2009, dated 2015).
Like-named read-outs stand apart in the source and are kept apart here. Positions of bridges follow the written chain, without caps; N, C: chain ends. Non-standard residues stand in square brackets, D forms with d. Residues, ends and D or L forms follow the SMILES beside them.

Assay: Biodistribution in B16/F1 melanoma-bearing C57 mice
Format: in vivo
Settings: female, C57, mouse, iv, total radioactivity
Experimental: All the animal studies were conducted in compliance with Institutional Animal Care and Use Committee approval. The pharmacokinetics of ^99mTc-RGD-Lys-(Arg^11)CCMSH was determined in B16/F1 melanoma-bearing C57 female mice (Harlan, Indianapolis, Ind.). C57 mice were subcutaneously inoculated on the right flank with 1×10^6 B16/F1 cells. The weight of tumors reached approximately 0.2 g 10 days post cell inoculation. Each melanoma-bearing mouse was injected with 0.037 MBq of ^99mTc-RGD-Lys-(Arg^11)CCMSH via the tail vein. Groups of 5 mice were sacrificed at 0.5, 2, 4 and 24 h post-injection, and tumors and organs of interest were harvested, weighed and counted. Blood values were taken as 6.5% of the whole-body weight. The MC1 receptor specificity of the tumor uptake was determined at 2 h post-injection by co-injecting ^99mTc-RGD-Lys-(Arg^11)CCMSH with 10 μg (6.1 nmol) of unlabeled NDP-MSH, a linear α-MSH peptide analogue with picomolar affinity for the MC1 receptors present on murine melanoma cells. The co-injection of 3.5 μg (6.1 nmol) of RGD peptide was performed to determine the αvβ3 integrin specificity of the tumor uptake 2 h post-injection. Statistical analysis was performed using the Student's t-test for unpaired data.
All the animal studies were conducted in compliance with Institutional Animal Care and Use Committee approval. The pharmacokinetics of ^99mTc-RGD-Arg-(Arg^11)CCMSH was determined in B16/F1 melanoma-bearing C57 female mice (Harlan, Indianapolis, Ind.). C57 mice were subcutaneously inoculated on the right flank with 1×10^6 B16/F1 cells. The weight of tumors reached approximately 0.2 g 10 days post cell inoculation. Each melanoma-bearing mouse was injected with 0.037 MBq of ^99mTc-RGD-Arg-(Arg^11)CCMSH via the tail vein. Groups of 5 mice were sacrificed at 0.5, 2, 4 and 24 h post-injection, and tumors and organs of interest were harvested, weighed and counted. Blood values were taken as 6.5% of the whole-body weight. The MC1 receptor specificity of the tumor uptake was determined at 2 h post-injection by co-injecting ^99mTc-RGD-Arg-(Arg^11)CCMSH with 10 μg (6.1 nmol) of unlabeled NDP-MSH. The co-injection of 3.5 μg (6.1 nmol) of RGD peptide was performed to determine the αvβ3 integrin specificity of the tumor uptake at 2 h post-injection.

CC(C)[C@H](NC(=O)[C@@H]1CCCN1C(=O)[C@H](CCCNC(=N)N)NC(=O)[C@H](CS)NC(=O)[C@H](Cc1c[nH]c2ccccc12)NC(=O)[C@H](CCCNC(=N)N)NC(=O)[C@@H](Cc1ccccc1)NC(=O)[C@H](Cc1c[nH]cn1)NC(=O)[C@H](CCC(=O)O)NC(=O)[C@H](CS)NC(=O)[C@H](CS)NC(=O)[C@H](CCCNC(=N)N)NC(=O)[C@@H]1CC(=O)N[C@@H](CCCNC(=N)N)C(=O)NCC(=O)N[C@@H](CC(=O)O)C(=O)N[C@H](Cc2ccc(O)cc2)C(=O)N1)C(N)=O [^99mTc-RGD-Arg-(Arg^11)CCMSH, metal not drawn] (RGD[dY]DRCCEH[dF]RWCRPV-NH2; lactam N-5)
tissue uptake at 2 h (skin, 0.037 MBq, 2 h post-injection, read-out: Skin, Percentage Injected Dose/gram): 1.29 ± 0.32 %ID/g | tissue uptake at 4 h (skin, 0.037 MBq, 4 h post-injection, read-out: Skin, Percentage Injected Dose/gram): 0.82 ± 0.22 %ID/g | tissue uptake at 24 h (skin, 0.037 MBq, 24 h post-injection, read-out: Skin, Percentage Injected Dose/gram): 0.75 ± 0.13 %ID/g | tissue uptake at 2 h (skin, 2 h post-injection, NDP blockade (10 μg NDP-MSH co-injected), read-out: Skin, Percentage Injected Dose/gram): 1.26 ± 0.14 %ID/g | tissue uptake at 2 h (skin, 2 h post-injection, RGD blockade (3.5 μg RGD co-injected), read-out: Skin, Percentage Injected Dose/gram): 0.95 ± 0.38 %ID/g | tissue uptake at 0.5 h (spleen, 0.037 MBq, 0.5 h post-injection, read-out: Spleen, Percentage Injected Dose/gram): 2.73 ± 0.8 %ID/g | tissue uptake at 2 h (spleen, 0.037 MBq, 2 h post-injection, read-out: Spleen, Percentage Injected Dose/gram): 1.17 ± 0.57 %ID/g | tissue uptake at 4 h (spleen, 0.037 MBq, 4 h post-injection, read-out: Spleen, Percentage Injected Dose/gram): 1.75 ± 0.55 %ID/g | tissue uptake at 24 h (spleen, 0.037 MBq, 24 h post-injection, read-out: Spleen, Percentage Injected Dose/gram): 1.45 ± 0.37 %ID/g | tissue uptake at 2 h (spleen, 2 h post-injection, NDP blockade (10 μg NDP-MSH co-injected), read-out: Spleen, Percentage Injected Dose/gram): 1.53 ± 0.12 %ID/g | tissue uptake at 2 h (spleen, 2 h post-injection, RGD blockade (3.5 μg RGD co-injected), read-out: Spleen, Percentage Injected Dose/gram): 0.67 ± 0.38 %ID/g | tissue uptake at 0.5 h (stomach, 0.037 MBq, 0.5 h post-injection, read-out: Stomach, Percentage Injected Dose/gram): 4.3 ± 1.78 %ID/g | tissue uptake at 2 h (stomach, 0.037 MBq, 2 h post-injection, read-out: Stomach, Percentage Injected Dose/gram): 2.75 ± 1.71 %ID/g | tissue uptake at 4 h (stomach, 0.037 MBq, 4 h post-injection, read-out: Stomach, Percentage Injected Dose/gram): 3.44 ± 0.83 %ID/g | tissue uptake at 24 h (stomach, 0.037 MBq, 24 h post-injection, read-out: Stomach, Percentage Injected Dose/gram): 0.47 ± 0.17 %ID/g | tissue uptake at 2 h (stomach, 2 h post-injection, NDP blockade (10 μg NDP-MSH co-injected), read-out: Stomach, Percentage Injected Dose/gram): 2.4 ± 0.49 %ID/g | tissue uptake at 2 h (stomach, 2 h post-injection, RGD blockade (3.5 μg RGD co-injected), read-out: Stomach, Percentage Injected Dose/gram): 2.03 ± 1.39 %ID/g | Fold change in tumor/kidney uptake ratio versus ^99mTc-RGD-Lys-(Arg^11)CCMSH at 0.5 h (tumor and kidneys, 0.037 MBq, 0.5 h post-injection, read-out: Tumor/kidney uptake ratio, times that of ^99mTc-RGD-Lys-(Arg^11)CCMSH): 2.38 | Fold change in tumor/kidney uptake ratio versus ^99mTc-RGD-Lys-(Arg^11)CCMSH at 2 h (tumor and kidneys, 0.037 MBq, 2 h post-injection, read-out: Tumor/kidney uptake ratio, times that of ^99mTc-RGD-Lys-(Arg^11)CCMSH): 2.27 | Fold change in tumor/kidney uptake ratio versus ^99mTc-RGD-Lys-(Arg^11)CCMSH at 4 h (tumor and kidneys, 0.037 MBq, 4 h post-injection, read-out: Tumor/kidney uptake ratio, times that of ^99mTc-RGD-Lys-(Arg^11)CCMSH): 2.44 | tissue uptake at 0.5 h (tumor, 0.037 MBq, 0.5 h post-injection, read-out: Tumor, Percentage Injected Dose/gram): 14.1 ± 2.42 %ID/g | tissue uptake at 2 h (tumor, 0.037 MBq, 2 h post-injection, read-out: Tumor, Percentage Injected Dose/gram): 21.4 ± 3.74 %ID/g | tissue uptake at 4 h (tumor, 0.037 MBq, 4 h post-injection, read-out: Tumor, Percentage Injected Dose/gram): 16.1 ± 2 %ID/g | tissue uptake at 24 h (tumor, 0.037 MBq, 24 h post-injection, read-out: Tumor, Percentage Injected Dose/gram): 6.81 ± 3.71 %ID/g | tissue uptake at 2 h (tumor, 2 h post-injection, NDP blockade (10 μg NDP-MSH co-injected), read-out: Tumor, Percentage Injected Dose/gram): 1.96 ± 0.71 %ID/g | tissue uptake at 2 h (tumor, 2 h post-injection, RGD blockade (3.5 μg RGD co-injected), read-out: Tumor, Percentage Injected Dose/gram): 16.9 ± 2.69 %ID/g | tissue to tissue ratio at 0.5 h (tumor/blood, 0.037 MBq, 0.5 h post-injection, read-out: Uptake Ratio Tumor/Blood): 3.87 | tissue to tissue ratio at 2 h (tumor/blood, 0.037 MBq, 2 h post-injection, read-out: Uptake Ratio Tumor/Blood): 38.9 | tissue to tissue ratio at 4 h (tumor/blood, 0.037 MBq, 4 h post-injection, read-out: Uptake Ratio Tumor/Blood): 22.6 | tissue to tissue ratio at 24 h (tumor/blood, 0.037 MBq, 24 h post-injection, read-out: Uptake Ratio Tumor/Blood): 28.4 | tissue to tissue ratio at 2 h (tumor/blood, 2 h post-injection, NDP blockade (10 μg NDP-MSH co-injected), read-out: Uptake Ratio Tumor/Blood): 4.17 | tissue to tissue ratio at 2 h (tumor/blood, 2 h post-injection, RGD blockade (3.5 μg RGD co-injected), read-out: Uptake Ratio Tumor/Blood): 422 | tissue to tissue ratio at 0.5 h (tumor/kidneys, 0.037 MBq, 0.5 h post-injection, read-out: Uptake Ratio Tumor/Kidneys): 0.38 | tissue to tissue ratio at 2 h (tumor/kidneys, 0.037 MBq, 2 h post-injection, read-out: Uptake Ratio Tumor/Kidneys): 0.5 | tissue to tissue ratio at 4 h (tumor/kidneys, 0.037 MBq, 4 h post-injection, read-out: Uptake Ratio Tumor/Kidneys): 0.44 | tissue to tissue ratio at 24 h (tumor/kidneys, 0.037 MBq, 24 h post-injection, read-out: Uptake Ratio Tumor/Kidneys): 0.42 | tissue to tissue ratio at 2 h (tumor/kidneys, 2 h post-injection, NDP blockade (10 μg NDP-MSH co-injected), read-out: Uptake Ratio Tumor/Kidneys): 0.06 | tissue to tissue ratio at 2 h (tumor/kidneys, 2 h post-injection, RGD blockade (3.5 μg RGD co-injected), read-out: Uptake Ratio Tumor/Kidneys): 0.44 | tissue to tissue ratio at 0.5 h (tumor/liver, 0.037 MBq, 0.5 h post-injection, read-out: Uptake Ratio Tumor/Liver): 3.35 | tissue to tissue ratio at 2 h (tumor/liver, 0.037 MBq, 2 h post-injection, read-out: Uptake Ratio Tumor/Liver): 5.98 | tissue to tissue ratio at 4 h (tumor/liver, 0.037 MBq, 4 h post-injection, read-out: Uptake Ratio Tumor/Liver): 3.26 | tissue to tissue ratio at 24 h (tumor/liver, 0.037 MBq, 24 h post-injection, read-out: Uptake Ratio Tumor/Liver): 3.6 | tissue to tissue ratio at 2 h (tumor/liver, 2 h post-injection, NDP blockade (10 μg NDP-MSH co-injected), read-out: Uptake Ratio Tumor/Liver): 0.68 | tissue to tissue ratio at 2 h (tumor/liver, 2 h post-injection, RGD blockade (3.5 μg RGD co-injected), read-out: Uptake Ratio Tumor/Liver): 7.34 | tissue to tissue ratio at 0.5 h (tumor/lung, 0.037 MBq, 0.5 h post-injection, read-out: Uptake Ratio Tumor/Lung): 1.87 | tissue to tissue ratio at 2 h (tumor/lung, 0.037 MBq, 2 h post-injection, read-out: Uptake Ratio Tumor/Lung): 10.4 | tissue to tissue ratio at 4 h (tumor/lung, 0.037 MBq, 4 h post-injection, read-out: Uptake Ratio Tumor/Lung): 15.9 | tissue to tissue ratio at 24 h (tumor/lung, 0.037 MBq, 24 h post-injection, read-out: Uptake Ratio Tumor/Lung): 8.96 | tissue to tissue ratio at 2 h (tumor/lung, 2 h post-injection, NDP blockade (10 μg NDP-MSH co-injected), read-out: Uptake Ratio Tumor/Lung): 1.38 | tissue to tissue ratio at 2 h (tumor/lung, 2 h post-injection, RGD blockade (3.5 μg RGD co-injected), read-out: Uptake Ratio Tumor/Lung): 13.9 | tissue to tissue ratio at 0.5 h (tumor/muscle, 0.037 MBq, 0.5 h post-injection, read-out: Uptake Ratio Tumor/Muscle): 7.87 | tissue to tissue ratio at 2 h (tumor/muscle, 0.037 MBq, 2 h post-injection, read-out: Uptake Ratio Tumor/Muscle): 102 | tissue to tissue ratio at 4 h (tumor/muscle, 0.037 MBq, 4 h post-injection, read-out: Uptake Ratio Tumor/Muscle): 50.2 | tissue to tissue ratio at 24 h (tumor/muscle, 0.037 MBq, 24 h post-injection, read-out: Uptake Ratio Tumor/Muscle): 27.2 | tissue to tissue ratio at 2 h (tumor/muscle, 2 h post-injection, NDP blockade (10 μg NDP-MSH co-injected), read-out: Uptake Ratio Tumor/Muscle): 3.92 | tissue to tissue ratio at 2 h (tumor/muscle, 2 h post-injection, RGD blockade (3.5 μg RGD co-injected), read-out: Uptake Ratio Tumor/Muscle): 60.3 | dose excreted at 0.5 h (urine, 0.037 MBq, 0.5 h post-injection, read-out: Urine, Percent injected dose): 43.1 ± 5.62% | dose excreted at 2 h (urine, 0.037 MBq, 2 h post-injection, read-out: Urine, Percent injected dose (cleared through the urinary system)): 67.8 ± 6.28% | dose excreted at 4 h (urine, 0.037 MBq, 4 h post-injection, read-out: Urine, Percent injected dose): 75.1 ± 3.61% | dose excreted at 24 h (urine, 0.037 MBq, 24 h post-injection, read-out: Urine, Percent injected dose): 88.3 ± 1.64% | dose excreted at 2 h (urine, 2 h post-injection, NDP blockade (10 μg NDP-MSH co-injected), read-out: Urine, Percent injected dose): 76.8 ± 3.01% | dose excreted at 2 h (urine, 2 h post-injection, RGD blockade (3.5 μg RGD co-injected), read-out: Urine, Percent injected dose): 71.8 ± 5.07%
